According to US20050130232A1, “Methods of screening for compounds that modulate hormone receptor activity” (Allergan, Inc., priority 2001, published 2005):
Where no end group is shown, it is not given here. [ ]: non-standard residue; d: D form. hArg = N=C(N)NCCCC[C@H](N)C(=O)O

target: Flag-tagged PH-RXRα (Flag tag, pleckstrin homology domain of human insulin receptor substrate-1, human RXRα) (UniProt P35568); assay: not given; conditions: not given

| Molecule | protein kinase A activity in anti-Flag immunoprecipitates (substrate SEQ ID NO: 59), with against without AGN194204 |
| --- | --- |
| catalytic subunit of murine protein kinase A (expressed from pFC-PKA, Stratagene) | Immunoprecipitates prepared with anti-Flag antibody showed a dramatic increase in the amount of protein kinase A activity |

target: T1, RXR-associated protein kinase in Flag-RXR immunocomplexes (Homo sapiens, UniProt P19793); assay: In vitro kinase reaction with [γ-32P]ATP on Flag-RXR immunocomplexes from transfected HEK 293 cells; assay type: cell-based; conditions: transfected HEK 293 cells treated with ligand before anti-Flag immunoprecipitation
T1 construct: expressed in transfected cells; host or cells: HEK 293
T1 sequence (P19793 1-462): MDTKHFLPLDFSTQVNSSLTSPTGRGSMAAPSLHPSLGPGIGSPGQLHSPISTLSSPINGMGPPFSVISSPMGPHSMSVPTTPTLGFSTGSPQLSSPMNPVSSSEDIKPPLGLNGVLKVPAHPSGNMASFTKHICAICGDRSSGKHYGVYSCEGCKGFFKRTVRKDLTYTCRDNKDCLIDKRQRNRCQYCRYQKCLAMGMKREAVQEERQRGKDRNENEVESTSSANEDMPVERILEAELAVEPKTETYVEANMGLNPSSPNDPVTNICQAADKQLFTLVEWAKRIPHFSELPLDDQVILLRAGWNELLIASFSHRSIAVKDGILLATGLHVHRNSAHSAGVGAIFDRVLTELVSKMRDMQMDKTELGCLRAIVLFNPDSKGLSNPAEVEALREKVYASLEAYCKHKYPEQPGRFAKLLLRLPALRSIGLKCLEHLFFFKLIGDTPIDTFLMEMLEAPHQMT
From the text: Total cell lysates were immunoprecipitated with anti-Flag antibody (M2). Aliquots of the immunocomplexes were used for the in vitro kinase reaction with [γ-^32P]ATP and separated on SDS-PAGE. Phosphorylated proteins were detected by autoradiography (top panel). Additional aliquots of the immunocomplexes were subjected to immunoblotting with polyclonal anti-RXR antisera (D20; bottom panel). (B) Phosphoamino acid analysis. Flag-RXR and the 160-kDa protein were phosphorylated in vitro and separated on SDS-PAGE as described above, then transferred onto PVDF membrane, detected by autoradiography, and cut out for hydrolysis with acid (6 N HCl). The phosphorylated amino acids and standards (P-Ser, P-Thr, and P-Tyr) were separated by thin-layer chromatography. Positions of the standards P-Ser, P-Thr, and P-Tyr were visualized by ninhydrin staining and are indicated by arrows. (C) In vivo metabolic labeling of transfected HEK 293 cells. […] Cells were washed with phosphate-free medium and starved for 90 minutes before incubation with [^32P]orthophosphate for another 4 hours. […] Total cell lysates were immunoprecipitated with anti-Flag antibody (M2) and subjected to separation on SDS-PAGE. Phosphorylated proteins were detected by autoradiography.
Total cell lysates were subjected to immunoprecipitation, and the in vitro kinase reaction performed as described above.
Cell lysis, immunoprecipitation with anti-Flag (M2), in vitro kinase assay, and detection of the phosphorylated proteins in the RXRα immunoprecipitated complexes were performed as described above.
Cell culture and transient transfection was performed as follows. HEK 293 cells were grown in Dulbecco's modified Eagle's medium (DMEM) supplemented with 10% fetal bovine serum (FBS), 100U of penicillin per ml and 10 μg of streptomycion per ml at 37° C. in 5% CO2. For expression of RXR protein, 100-mm dishes of cells were transfected at 50% confluence with 2 μg of plasmid DNA using Lipofectamine (Life Technologies) as specified by the manufacturer. At 32 hours post-transfection, cells were starved by incubating in DMEM medium with 2.5% charcoal-treated fetal bovine serum or 0.1-0.5% calf bovine serum overnight, and then treated with indicated agents. Cells were harvested by aspirating medium, rinsing in phosphate buffered saline (PBS), and extracting into Lysis Buffer (30 mM Tris-HCL, pH 7.4, 0.5% Nonidet P-40, 10% glycerol, 150 mM NaCl, 1 mM EDTA, 40 mM NaF, 1 mM sodium orthovanadate, and 0.5 mM phenylmethylsufonyl fluoride, and 1× protease inhibitors, (Roche Diagnostics) or 1×SDS Sample Buffer.
Immunoprecipitation was performed essentially as follows. Cells were solubilized in cold Lysis Buffer and subsequently clarified by centrifugation at 20,000 g for 10 minutes at 4° C. Immunoprecipitations were performed at 4° C. by incubating clarified cell extracts with the indicated antibodies (2 μg/ml) and protein A/G-agarose beads (1:30 dilution of a 50% suspension) on a rotating wheel for 4 hours to overnight. Agarose beads were pelleted by low speed centrifugation and washed extensively with ice-cold Lysis Buffer.
Protein kinase assays were performed as follows. Immunoprecipitated complexes were resuspended in 15 μl of Kinase Assay Buffer (30 mM Tris-HCl, pH 7.4 and 10 mM MgCl2). Kinase reactions were initiated by addition of 2.5 μl of 50 μM [γ-^32P]ATP (10 μCi) to the immune-complexes, followed by incubation at 25° C. with occasional shaking for 20 minutes, and terminated by addition of 6 μl 4×SDS Sample Buffer. After heating at 100° C. for 5 minutes, the reaction mixtures were resolved by 4-12% SDS-PAGE. Incorporation of ^32P into RXR or other proteins was determined by autoradiography.

| Molecule | phosphorylation of RXR and 160 kDa protein in Flag-RXR immunocomplexes |
| --- | --- |
| CCC[C@]1(c2ccc3c(c2)C(C)(C)CCC3(C)C)C[C@H]1/C=C/C(C)=C/C(=O)O [AGN195203] | contained a kinase phosphorylated RXR and a 160 kDa protein |
| C/C(=C\c1ccc(C(=O)O)cc1)c1ccc2c(c1)C(C)(C)CCC2(C)C [TTNPB] | neither RXR nor the 160 kDa protein was phosphorylated |
| CC1(C)CCC(C)(C)c2c1cc(C(=O)Nc1cc(F)c(C(=O)O)c(F)c1)c(O)c2Cl [AGN195183] | not stimulated |
| CCCCCCOc1c(\C(C)=C/C=C/C(C)=C/C(=O)O)cc(C(C)C)cc1C(C)C [AGN195393] | neither RXR nor the 160 kDa protein was phosphorylated |
| CC1(C)CCC(C)(C)c2cc(C3(c4ccc(C(=O)O)cn4)CC3)ccc21 [AGN195029] | contained a kinase phosphorylated RXR and a 160 kDa protein |
| CC[C@]1(c2ccc3c(c2)C(C)(C)CCC3(C)C)C[C@H]1/C=C/C(C)=C/C(=O)O [AGN195184] | contained a kinase phosphorylated RXR and a 160 kDa protein |

system: protein kinase A; assay: not given; conditions: selected protein kinase A synthetic substrates; cited from earlier work

| Molecule | Km [µM] |
| --- | --- |
| L R R A S V A (LRRASVA) [SEQ ID NO.: 91, protein kinase A synthetic substrate] | > 10 |
| L R K A S L G (LRKASLG) [SEQ ID NO.: 100, protein kinase A synthetic substrate] | 260 |
| LRRASLG [SEQ ID NO.: 94, L R R A S L G] | 16 |
| V L Q A R R G S S I P Q (VLQARRGSSIPQ) [SEQ ID NO.: 104, protein kinase A synthetic substrate] | 11 |
| L X^aR A S L G (L[hArg]RASLG) [SEQ ID NO.: 102, protein kinase A synthetic substrate, X = homoarginine] | 350 |
| R R A S V A (RRASVA) [SEQ ID NO.: 92, protein kinase A synthetic substrate] | 20 |
| R T G R S G S V (RTGRSGSV) [SEQ ID NO.: 106, protein kinase A synthetic substrate] | 140 |
| R R A S F (RRASF) [SEQ ID NO.: 111, protein kinase A synthetic substrate] | 13 |
| V L Q R R R G T S I P Q (VLQRRRGTSIPQ) [SEQ ID NO.: 108, protein kinase A synthetic substrate] | 39 |
| R R A S L G (RRASLG) [SEQ ID NO.: 95, protein kinase A synthetic substrate] | 26 |
| G R G L S L S R (GRGLSLSR) [SEQ ID NO.: 90, protein kinase A synthetic substrate] | 240 |
| R T K R S G S V (RTKRSGSV) [SEQ ID NO.: 99, protein kinase A synthetic substrate] | 21 |
| L H R A S L G (LHRASLG) [SEQ ID NO.: 101, protein kinase A synthetic substrate] | 415 |
| V L Q R R R G S S I P Q (VLQRRRGSSIPQ) [SEQ ID NO.: 97, protein kinase A synthetic substrate] | 4 |
| R R A S I (RRASI) [SEQ ID NO.: 112, protein kinase A synthetic substrate] | 7 |
| A R T K R S G S V (ARTKRSGSV) [SEQ ID NO.: 98, protein kinase A synthetic substrate] | 10 |
| V L Q R R R P T S I P Q (VLQRRRPTSIPQ) [SEQ ID NO.: 110, protein kinase A synthetic substrate] | 118 |
| R R A S V (RRASV) [SEQ ID NO.: 93, protein kinase A synthetic substrate] | 24 |
| V L Q A R R G T S I P Q (VLQARRGTSIPQ) [SEQ ID NO.: 109, protein kinase A synthetic substrate] | 139 |
| L R R A S L (LRRASL) [SEQ ID NO.: 96, protein kinase A synthetic substrate] | 57 |

system: RXR receptors; assay: not given; conditions: cited from earlier work

| Molecule | binding to RXR receptors |
| --- | --- |
| Cc1cc2c(cc1C1(c3ccc(C(=O)O)cn3)CC1)C(C)(C)CCC2(C)C [LG 100268] | binding to all three RXRs |
| C/C(=C\c1ccc(C(=O)O)cc1)c1ccc2c(c1)C(C)(C)CCC2(C)C [TTNPB] | not RXRs |
| CC1=C(/C=C/C(C)=C/C=C/C(C)=C/C(=O)O)C(C)(C)CCC1 [ATRA, All trans-retinoic acid] | does not bind the RXR receptors |
| CC1(C)CCC(C)(C)c2cc(C3(c4ccc(C(=O)O)cc4)OCCO3)ccc21 [SR 11237] | binding to all three RXRs |
| CC(C)=C(c1ccc(C(=O)O)cc1)c1ccc2c(c1)C(C)(C)CCC2(C)C [SR 11217] | binding to all three RXRs |
| CC1=C(/C=C/C(C)=C\C=C\C(C)=C\C(=O)O)C(C)(C)CCC1 [9-cis RA, 9-cis-retinoic acid] | RXR receptor ligand |

system: RAR receptors; assay: not given; conditions: cited from earlier work

| Molecule | binding to RAR receptors |
| --- | --- |
| Cc1cc2c(cc1C1(c3ccc(C(=O)O)cn3)CC1)C(C)(C)CCC2(C)C [LG 100268] | not to any of the RAR isotypes |
| C/C(=C\c1ccc(C(=O)O)cc1)c1ccc2c(c1)C(C)(C)CCC2(C)C [TTNPB] | binds RARs |
| CC1=C(/C=C/C(C)=C/C=C/C(C)=C/C(=O)O)C(C)(C)CCC1 [ATRA, All trans-retinoic acid] | physiological hormone for the RAR receptors |
| CC1(C)CCC(C)(C)c2cc(C3(c4ccc(C(=O)O)cc4)OCCO3)ccc21 [SR 11237] | not to any of the RAR isotypes |
| CC(C)=C(c1ccc(C(=O)O)cc1)c1ccc2c(c1)C(C)(C)CCC2(C)C [SR 11217] | not to any of the RAR isotypes |
| CC1=C(/C=C/C(C)=C\C=C\C(C)=C\C(=O)O)C(C)(C)CCC1 [9-cis RA, 9-cis-retinoic acid] | binds to the RAR receptors |

same assay, conditions: in vitro binding assays; cited from earlier work

| Molecule | RAR isotype selectivity |
| --- | --- |
| CC1(C)CCC(C)(C)c2cc(NC(=O)c3ccc(C(=O)O)cc3)ccc21 [Am 80] | RARα-selective |
| CC1(C)CCSc2ccc(C#Cc3ccc(C(=O)O)cn3)cc21 [AGN 190299] | RARβ/γ selective |
| CC1(C)CCC(C)(C)c2cc(C(=O)Nc3ccc(C(=O)O)cc3)ccc21 [Am 580] | RARα-selective |
